Data as given in patent US20230265151A1, “GIP/GLP1 CO-AGONIST COMPOUNDS” (priority 2020, published 2023).
Read-outs that look alike come from different tables or passages of the source.

Key:
Format in all cases: cell-based
[1] = target: hGLP-1R (Homo sapiens, UniProt P43220); test: Functional cAMP formation (HTRF) in HEK-293 clonal cells expressing hGLP-1R, 0.1% bovine casein, without or with 1.0% human serum albumin; parameters: expressed in transfected cells; conditions: for EC50: geometric mean
Chain of hGLP-1R (P43220 24-463): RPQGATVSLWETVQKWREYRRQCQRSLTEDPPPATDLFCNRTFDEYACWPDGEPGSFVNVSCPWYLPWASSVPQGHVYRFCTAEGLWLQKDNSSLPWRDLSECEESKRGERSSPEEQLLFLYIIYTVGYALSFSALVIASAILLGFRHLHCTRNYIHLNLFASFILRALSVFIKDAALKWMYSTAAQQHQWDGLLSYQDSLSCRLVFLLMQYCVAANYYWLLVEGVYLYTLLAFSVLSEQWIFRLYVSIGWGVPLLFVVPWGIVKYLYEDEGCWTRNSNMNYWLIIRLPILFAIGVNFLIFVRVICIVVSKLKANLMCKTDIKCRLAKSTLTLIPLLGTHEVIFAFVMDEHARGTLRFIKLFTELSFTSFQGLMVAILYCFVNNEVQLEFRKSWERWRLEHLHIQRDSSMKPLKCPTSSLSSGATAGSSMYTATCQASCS
How it was run: (§1)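 Readings of the HTRF 665/620 nm ratio, which falls as cAMP rises, were converted to nM cAMP using a standard curve after 30 min peptide exposure at 37° C.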

[2] = target: T1, hGIPR (Homo sapiens, UniProt P48546); test: Functional cAMP formation (HTRF) in HEK-293 clonal cells expressing hGIPR, 0.1% bovine casein, without or with 1.0% human serum albumin; conditions: for EC50: geometric mean
T1 construct: expressed in transfected cells
T1 sequence (P48546 22-466): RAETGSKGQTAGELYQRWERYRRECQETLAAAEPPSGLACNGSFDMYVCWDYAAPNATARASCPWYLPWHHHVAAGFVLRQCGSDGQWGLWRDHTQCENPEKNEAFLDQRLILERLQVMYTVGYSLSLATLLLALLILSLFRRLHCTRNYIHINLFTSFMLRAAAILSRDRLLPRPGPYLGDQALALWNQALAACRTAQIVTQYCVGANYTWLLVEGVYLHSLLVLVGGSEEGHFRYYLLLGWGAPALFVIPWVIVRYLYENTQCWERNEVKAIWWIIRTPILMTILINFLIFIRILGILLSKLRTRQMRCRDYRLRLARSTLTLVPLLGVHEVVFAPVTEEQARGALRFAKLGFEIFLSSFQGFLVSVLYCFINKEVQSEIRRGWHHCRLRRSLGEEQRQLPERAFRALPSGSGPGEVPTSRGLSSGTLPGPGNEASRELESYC
How it was run: as §1

[3] = target: T2, hGCGR (Homo sapiens, UniProt P47871); test: Functional cAMP formation (HTRF) in HEK-293 clonal cells expressing hGCGR, 0.1% bovine casein, without or with 1.0% human serum albumin; conditions: geometric mean
T2 construct: expressed in transfected cells
T2 sequence (P47871 26-477): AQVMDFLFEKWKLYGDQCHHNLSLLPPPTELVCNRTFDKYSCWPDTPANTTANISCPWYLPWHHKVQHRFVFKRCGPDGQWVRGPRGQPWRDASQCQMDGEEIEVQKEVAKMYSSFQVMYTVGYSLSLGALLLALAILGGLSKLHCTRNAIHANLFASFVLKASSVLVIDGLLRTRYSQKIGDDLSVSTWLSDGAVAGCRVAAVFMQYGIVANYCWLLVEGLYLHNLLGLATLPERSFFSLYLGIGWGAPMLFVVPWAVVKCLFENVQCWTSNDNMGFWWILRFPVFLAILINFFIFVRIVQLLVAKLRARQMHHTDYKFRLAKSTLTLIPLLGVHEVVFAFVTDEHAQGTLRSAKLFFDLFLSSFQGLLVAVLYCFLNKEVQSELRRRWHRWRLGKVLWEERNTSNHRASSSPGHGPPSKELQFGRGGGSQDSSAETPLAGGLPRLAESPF
How it was run: as §1

[4] = 0.1% bovine casein and 1.0% human serum albumin, 37° C., read-out: hGLP-1R EC50, nM (SEM, n)
[5] = 0.1% bovine casein and 1.0% human serum albumin, 37° C., read-out: hGIPR EC50, nM (SEM, n)
[6] = HEK293, 0.1% bovine casein and 1.0% human serum albumin, 37° C., percent of maximal response to GIP(1-42)NH2, read-out: hGIPR Emax, % ± SEM
[7] = 0.1% bovine casein and 1.0% human serum albumin, 37° C., read-out: hGCGR EC50, nM (SEM, n)
[8] = cAMP, incubated at 37° C., 0.1% bovine casein (no human serum albumin), read-out: hGCGR EC50, nM (SEM, n)

| Compound | EC50 [1, 4] [nM] | EC50 [2, 5] [nM] | Emax [2, 6] [%] | Emax ([2]; HEK293, percent of maximal response to GIP(1-42)NH2, 37° C., 0.1% bovine casein, arithmetic mean, read-out: hGIPR Emax, % ± SEM) [%] | EC50 ([2]; cAMP, incubated at 37° C., 0.1% bovine casein (no human serum albumin), read-out: hGIPR EC50, nM (SEM, n)) [nM] | EC50 [3, 7] [nM] | EC50 [3, 8] [nM] | Emax ([1]; HEK293, read-out: hGLP-1R Emax, % ± SEM, 0.1% bovine casein and 1.0% human serum albumin, 37° C., percent of maximal response to GLP-1(7-36)NH2) [%] | EC50 ([1]; hGLP-1R EC50, nM (SEM, n), 0.1% bovine casein and 1.0% human serum albumin, 37° C.) [nM] | EC50 ([1]; hGLP-1R EC50, nM (SEM, n), cAMP, incubated at 37° C., 0.1% bovine casein (no human serum albumin)) [nM] | Emax ([2]; HEK293, read-out: hGIPR Emax, % ± SEM, 0.1% bovine casein and 1.0% human serum albumin, 37° C., percent of maximal response to GIP(1-42)NH2) [%] | EC50 ([2]; hGIPR EC50, nM (SEM, n), 0.1% bovine casein and 1.0% human serum albumin, 37° C.) [nM] | EC50 ([2]; hGIPR EC50, nM (SEM, n), cAMP, incubated at 37° C., 0.1% bovine casein (no human serum albumin)) [nM] | EC50 ([3]; hGCGR EC50, nM (SEM, n), 0.1% bovine casein and 1.0% human serum albumin, 37° C.) [nM] | EC50 ([3]; hGCGR EC50, nM (SEM, n), cAMP, incubated at 37° C., 0.1% bovine casein (no human serum albumin)) [nM] | Emax ([1]; HEK293, 0.1% bovine casein and 1.0% human serum albumin, 37° C., percent of maximal response to GLP-1(7-36)NH2, read-out: hGLP-1R Emax, % ± SEM) [%] | Emax ([1]; HEK293, percent of maximal response to GLP-1(7-36)NH2, 37° C., 0.1% bovine casein, arithmetic mean, read-out: hGLP-1R Emax, % ± SEM) [%] |
| --- | --- | --- | --- | --- | --- | --- | --- | --- | --- | --- | --- | --- | --- | --- | --- | --- | --- |
| CC[C@H](C)[C@H](NC(=O)[C@H](CC(C)C)NC(=O)[C@](C)(Cc1ccc(O)cc1)NC(=O)[C@@H](CCC(=O)O)NC(=O)[C@@H](NC(=O)[C@H](Cc1ccccc1)NC(=O)[C@H](CCC(=O)O)NC(=O)C(C)(C)NC(=O)[C@H](CCC(N)=O)NC(=O)[C@H](C)NC(=O)[C@H](CCCCNC(=O)COCCOCCNC(=O)CC[C@H](NC(=O)CCCCCCCCCCCCC(=O)O)C(=O)O)NC(=O)[C@H](CCCN)NC(=O)[C@H](CC(=O)O)NC(=O)[C@H](CC(C)C)NC(=O)[C@](C)(CC(C)C)NC(=O)[C@@H](NC(=O)[C@H](CO)NC(=O)[C@H](Cc1ccncc1)NC(=O)[C@H](CC(=O)O)NC(=O)[C@H](CO)NC(=O)[C@@H](NC(=O)[C@](C)(Cc1ccccc1F)NC(=O)[C@@H](NC(=O)CNC(=O)[C@H](CCC(=O)O)NC(=O)C(C)(C)NC(=O)[C@@H](N)Cc1ccc(O)cc1)[C@@H](C)O)[C@@H](C)O)[C@@H](C)CC)[C@@H](C)CC)C(=O)N[C@@H](CCC(=O)O)C(=O)NCC(=O)NCC(=O)N[C@@H](CCCCNC(=O)COCCOCCNC(=O)CC[C@H](NC(=O)CCCCCCCCCCCCC(=O)O)C(=O)O)C(=O)N[C@@H](CO)C(=O)N[C@@H](CO)C(=O)NCC(=O)N[C@@H](C)C(=O)N1CCC[C@H]1C(=O)N1CCC[C@H]1C(=O)N1CCC[C@H]1C(=O)N[C@@H](CO)C(N)=O [Example 11] | 34.5 | 1.22 | 90 ± 2.71 | 97.7 ± 2.82 | 0.0135 | > 9950 | > 9950 | – | – | – | – | – | – | – | – | – | – |
| CC[C@H](C)[C@H](NC(=O)[C@H](CC(C)C)NC(=O)[C@](C)(Cc1ccc(O)cc1)NC(=O)[C@H](CCCCNC(=O)COCCOCCNC(=O)COCCOCCNC(=O)CC[C@H](NC(=O)CCCCCCCCCCCCC(=O)O)C(=O)O)NC(=O)[C@@H](NC(=O)[C@H](Cc1ccccc1)NC(=O)[C@H](CCC(=O)O)NC(=O)C(C)(C)NC(=O)[C@H](CCC(N)=O)NC(=O)[C@H](C)NC(=O)[C@H](CCCCNC(=O)COCCOCCNC(=O)COCCOCCNC(=O)CC[C@H](NC(=O)CCCCCCCCCCCCC(=O)O)C(=O)O)NC(=O)[C@H](CCCN)NC(=O)[C@H](CC(=O)O)NC(=O)[C@H](CC(C)C)NC(=O)[C@](C)(CC(C)C)NC(=O)[C@@H](NC(=O)[C@H](CO)NC(=O)[C@H](Cc1ccncc1)NC(=O)[C@H](CC(=O)O)NC(=O)[C@H](CO)NC(=O)[C@@H](NC(=O)[C@](C)(Cc1ccccc1F)NC(=O)[C@@H](NC(=O)CNC(=O)[C@H](CCC(=O)O)NC(=O)C(C)(C)NC(=O)[C@@H](N)Cc1ccc(O)cc1)[C@@H](C)O)[C@@H](C)O)[C@@H](C)CC)[C@@H](C)CC)C(=O)N[C@@H](CCC(=O)O)C(=O)NCC(=O)NCC(=O)N1CCC[C@H]1C(=O)N[C@@H](CO)C(=O)N[C@@H](CO)C(=O)NCC(=O)N[C@@H](C)C(=O)N1CCC[C@H]1C(=O)N1CCC[C@H]1C(=O)N1CCC[C@H]1C(=O)N[C@@H](CO)C(N)=O [Example 16] | – | – | – | – | – | – | – | 98.3 ± 0.735 | 9.06 | 0.245 | 91.5 ± 1.01 | 0.625 | 0.0113 | > 9950 | > 9950 | – | – |
| CCCCCCCCCCCCCCCC(=O)N[C@@H](CCC(=O)NCCOCCOCC(=O)NCCOCCOCC(=O)NCCOCCOCC(=O)NCCCC[C@H](NC(=O)CNC(=O)CNC(=O)[C@H](CCC(=O)O)NC(=O)[C@@H](NC(=O)[C@H](CC(C)C)NC(=O)[C@](C)(Cc1ccc(O)cc1)NC(=O)[C@@H](CCC(=O)O)NC(=O)[C@@H](NC(=O)[C@H](Cc1ccccc1)NC(=O)[C@H](CCC(=O)O)NC(=O)C(C)(C)NC(=O)[C@H](CCC(N)=O)NC(=O)[C@H](C)NC(=O)[C@H](CCCCNC(=O)COCCOCCNC(=O)COCCOCCNC(=O)COCCOCCNC(=O)CC[C@H](NC(=O)CCCCCCCCCCCCCCC)C(=O)O)NC(=O)[C@H](CCCN)NC(=O)[C@H](CC(=O)O)NC(=O)[C@H](CC(C)C)NC(=O)[C@](C)(CC(C)C)NC(=O)[C@@H](NC(=O)[C@H](CO)NC(=O)[C@H](Cc1ccncc1)NC(=O)[C@H](CC(=O)O)NC(=O)[C@H](CO)NC(=O)[C@@H](NC(=O)[C@](C)(Cc1ccccc1F)NC(=O)[C@@H](NC(=O)CNC(=O)[C@H](CCC(=O)O)NC(=O)C(C)(C)NC(=O)[C@@H](N)Cc1ccc(O)cc1)[C@@H](C)O)[C@@H](C)O)[C@@H](C)CC)[C@@H](C)CC)[C@@H](C)CC)C(=O)N[C@@H](CO)C(=O)N[C@@H](CO)C(=O)NCC(=O)N[C@@H](C)C(=O)N1CCC[C@H]1C(=O)N1CCC[C@H]1C(=O)N1CCC[C@H]1C(=O)N[C@@H](CO)C(N)=O)C(=O)O [Example 31] | 0.545 | 0.147 | 88.9 | – | – | > 9950 | > 9950 | – | – | – | – | – | – | – | – | 109 ± 7.91 | 91.3 ± 16.1 |
